Literature values, collected in patent US10076496B2, “Engineering of polymer-stabilized nanoparticles for drugs with Log P values below 6 by controlled antisolvent precipitation” (THE CHINESE UNIVERSITY OF HONG KONG, priority 2011, dated 2018).

CC(=O)O[C@H]1C(=O)[C@@]2(C)[C@H]([C@H](OC(=O)c3ccccc3)[C@]3(O)C[C@H](OC(=O)[C@H](O)[C@@H](NC(=O)c4ccccc4)c4ccccc4)C(C)=C1C3(C)C)[C@]1(OC(C)=O)CO[C@@H]1C[C@@H]2O [paclitaxel]
Log P: 7.38
